Tested on: T1, UBE2D1
T1 construct: His6 (N); made in house; host or cells: E. coli Rosetta (DE3)
Test: Gel-based ubiquitylation assay (UBE2D1/GST-FANCLRING), ubiquitylated UBE2D1 species
Assay type: biochemical
Details: E2 = UBE2D1, E3 = GST-FANCLRING; 30 min at 37 °C
Procedure: Figure 2 Gel-based ubiquitylation assays with confirmed HTRF hits. […] Western blots (WB) probed for GST or biotin as labeled. Reactions contained 20 nM His6-UBE1, 50 nM E2, 250 nM GST-E3, 500 nM biotinylated ubiquitin: (a) E2 = UBE2T, E3 = GST-FANCLRING, 30 min of reaction at 37 °C; (b) E2 = UBE2D1, E3 = GST-FANCLRING, 30 min of reaction at 37 °C; and (c) E2 = UBE2D1, E3 = GST-RNF8, 10 min of reaction at 37 °C.
In order to explore the selectivity of CU1, CU2, CU9, CU10, and CU12, we conducted a counter-screen against other E2 and E3 combinations. Since members of the UBE2D family of E2s are known to ubiquitylate multiple substrates in vitro,[13] a ubiquitylation assay featuring UBE2D1 and GST-FANCLRING was performed. With UBE2D1, multiple ubiquitylated GST-FANCLRING species could be observed (Figure 2b).
Purified protein was concentrated using a Vivaspin-6 concentrator with a 10 kDa MW cut-off (Vivascience) and flash-frozen in small aliquots for storage at […]
Cy5 labelling of ubiquitin. […]
Homogeneous Time-Resolved Fluorescence (HTRF) Assay. […]
(v/v) DMSO. […] Signal was measured at λEx 340 nm and λEm 665 nm and 620 nm using a PHERAstar FS plate reader
(BMG Labtech). A ratio was calculated as [λEm(665)/λEm(620)] × 104 for each well and this was used to determine the percent inhibition for test compounds. […]

## NC(=O)[C@@H]1CCCN1C(=O)c1cc(-n2cccc2)ccc1Cl [CU12]
  formation of ubiquitylated UBE2D1 species: prevented the formation of any ubiquitylated UBE2D1 species

— PMC6804243, “Small-Molecule Inhibition of UBE2T/FANCL-Mediated Ubiquitylation in the Fanconi Anemia Pathway” (ACS Chemical Biology, 2019)
